# Experimental data: patent US20260335238A1, “SPRAY-DRIED COMPOSITIONS COMPRISING CGRP RECEPTOR ANTAGONISTS” (OREXO AB, priority 2023, published 2026)
# Experiment: Chemical stability of spray-dried zavegepant powder on storage, assay and % RS by HPLC/UV
# Assay type: physicochemical
# Conditions: zavegepant formulated as spray-dried powder, stored up to 6 months at 25/60 and 40/75
# Description: The assay and purity, determined by HPLC/UV analysis, was 103.4% with a % RS of 1.46%.
# Amounts of around 100 mg of the spray-dried powder from Example 2 above was dispensed into plastic DUMA containers placed in heat-sealed aluminium pouches together with a 4 Å molecular sieve desiccant. Two containers were placed inside a climate cabinet at 40 °C and 75% relative humidity (40/75) and two containers were placed inside a climate cabinet at 25 °C and 60% relative humidity (25/60).
# The chemical stability of the drug substance after 6 months, with assay and total amounts of impurities and degradation products expressed as % RS, is summarized for the different climates in Table 3 below, in which NA means ‘not analysed’.
smiles,measurement,value
Cc1cc(C[C@@H](NC(=O)N2CCC(c3cc4ccccc4[nH]c3=O)CC2)C(=O)N2CCN(C3CCN(C)CC3)CC2)cc2cn[nH]c12 [zavegepant],chemical stability (observed changes in % RS),surprisingly good
